Patent publication US9216973B2, “Insecticidal compounds” (Syngenta Participations AG, priority 2008, dated 2015)

System: Spodoptera littoralis (Egyptian cotton leafworm)
Assay: Spodoptera littoralis cotton leaf disc spray test
Format: in vivo
Conditions: for pest or weed control at 200 ppm: foliar, 72 h, 200 ppm spray on cotton leaf discs, L1 larvae, mortality, feeding behavior, growth regulation 3 days after treatment; for effect on mortality, feeding behavior, or growth regulation: same protocol, 200 ppm
Procedure: This Example illustrates the insecticidal and acaricidal properties of compounds of formula (I). The tests were performed as follows:
Spodoptera littoralis (Egyptian cotton leafworm):
Cotton leaf discs were placed on agar in a 24-well microtiter plate and sprayed with test solutions at an application rate of 200 ppm. After drying, the leaf discs were infested with 5 L1 larvae. The samples were checked for mortality, feeding behavior, and growth regulation 3 days after treatment (DAT). The following compound gave at least 80% control of Spodoptera littoralis: A1, A2, A5, A6, A7, A8, A10, A11, A12, A13, A14, A15, A16, A17, A18, A19, A21, A22, A23, A24, A25, A30, A31, A32, A33, A34, A35, A39, A40, A41 A42, A43, A44, A45, A46, A47, A48, A49, A50, A51, A53, A54, A55, A59, A60, A61, A62. Heliothis virescens (Tobacco budworm): Eggs (0-24 h old) were placed in 24-well microtiter plate on artificial diet and treated with test solutions at an application rate of 200 ppm (concentration in well 18 ppm) by pipetting. After an incubation period of 4 days, samples were checked for egg mortality, larval mortality, and growth regulation. The following compound gave at least 80% control of Heliothis virescens: A1, A2, A3, A4, A5, A6, A7, A8, A10, A11, A12, A13, A14, A15, A16, A18, A19, A21, A22, A24, A25, A30, A31, A32, A33, A34, A35, A37, A38, A39, A40, A42, A43, A44, A45, A46, A47, A48, A49, A50, A51, A55, AA57, A58, A59, A60, A61, A62. Plutella xylostella (Diamond back moth): 24-well microtiter plate (MTP) with artificial diet was treated with test solutions at an application rate of 200 ppm (concentration in well 18 ppm) by pipetting. After drying, the MTP's were infested with L2 larvae (7-12 per well). After an incubation period of 6 days, samples were checked for larval mortality and growth regulation. The following compound gave at least 80% control of Plutella xylostella: A1, A2, A5, A6, A7, A8, A9, A10, A11, A12, A13, A14, A15, A16, A17, A18, A19, A20, A21, A22, A24, A25, A30, A31, A32, A33, A34, A35, A37, A38, A39, A40, A42, A43, A44, A45, A46, A47, A48, A49, A50, A51, A52, A53, A54, A55, A57, A58, A59, A60, A61, A62, B3. Diabrotica balteata (Corn root worm): A 24-well microtiter plate (MTP) with artificial diet was treated with test solutions at an application rate of 200 ppm (concentration in well 18 ppm) by pipetting. After drying, the MTP's were infested with L2 larvae (6-10 per well). After an incubation period of 5 days, samples were checked for larval mortality and growth regulation. The following compound gave at least 80% control of Diabrotica balteata: A1, A2, A5, A6, A7, A10, A11, A12, A13, A14, A15, A16, A17, A18, A19, A21, A22, A24, A25, A30, A31, A32, A33, A34, A35, A38, A39, A40, A42, A43, A44, A45, A46, A47, A48, A49, A50, A59, A60, A61, A62. Thrips tabaci (Onion thrips): Sunflower leaf discs were placed on agar in a 24-well microtiter plate and sprayed with test solutions at an application rate of 200 ppm. After drying, the leaf discs were infested with an […] population of mixed ages. After an incubation period of 7 days, samples were checked for mortality. The following compounds gave at least 80% control of Thrips tabaci: A1, A2, A5, A6, A7, A8, A10, A12, A13, A14, A15, A16, A17, A18, A19, A21, A24, A25, A30, A31, A32, A33, A34, A35, A39, A42, A43, A44, A45, A46, A47, A48, A49, A50, A51, A53, A54, A57, A58, A59, A60, A61, A62. Tetranychus urticae (Two-spotted spider mite): Bean leaf discs on agar in 24-well microtiter plates were sprayed with test solutions at an application rate of 200 ppm. After drying, the leaf discs are infested with mite populations of mixed ages. 8 days later, discs are checked for egg mortality, larval mortality, and adult mortality. […]

Work on `Cc1cc(C2CC(c3cc(Cl)cc(Cl)c3)(C(F)(F)F)ON2C)ccc1C(=O)NC1C[S+]([O-])C1` (centres unmarked) [A18] yielded a pest or weed control at 200 ppm of at least 80%.

`Cc1cc(C2=NOC(c3cc(Cl)cc(Cl)c3)(C(F)(F)F)C2Br)ccc1C(=O)NC1C[S+]([O-])C1` (centres unmarked) [A7] was tested, and the pest or weed control at 200 ppm was at least 80%.

Work on `Cc1cc(N2CC(c3cc(Cl)cc(Cl)c3)(C(F)(F)F)OC2=O)ccc1C(=O)NC1C[S+]([O-])C1` (centres unmarked) [A10] yielded a pest or weed control at 200 ppm of at least 80%.

Compound `Cc1cc(C2=NOC(c3cc(Cl)cc(Cl)c3)(C(F)(F)F)C2O)ccc1C(=O)NC1C[S+]([O-])C1` (centres unmarked) [A53] has a pest or weed control at 200 ppm of at least 80%.

Work on `Cc1cc(C2=NOC(c3cc(Cl)cc(Cl)c3)(C(F)(F)F)C2O)ccc1C(=O)NC1CS(=O)(=O)C1` (centres unmarked) [A51] yielded a pest or weed control at 200 ppm of at least 80%.

`Cc1cc(C2=NOC(c3cc(Cl)cc(Cl)c3)(C(F)(F)F)C2F)ccc1C(=O)NC1CS(=O)(=O)C1` (centres unmarked) [A59] was tested, and the pest or weed control at 200 ppm was at least 80%.

With `Cc1cc(C2=NOC(c3cc(Cl)cc(Cl)c3)(C(F)(F)F)/C2=N/O)ccc1C(=O)NC1(C)CSC1` (centres unmarked) [A56] the “effect on mortality, feeding behavior, or growth regulation” value (“effect on mortality, feeding behavior” for short) was “little or no effect”.

Compound `Cc1cc(C2=NOC(c3cc(Cl)cc(Cl)c3)(C(F)(F)F)C2F)ccc1C(=O)NC1(C)CSC1` (centres unmarked) [A60] has a pest or weed control at 200 ppm of at least 80%.

`Cc1cc(C2=NOC(c3cc(Cl)cc(Cl)c3)(C(F)(F)F)C2Cl)ccc1C(=O)NC1CS(=O)(=O)C1` (centres unmarked) [A32] showed a pest or weed control at 200 ppm of at least 80%.

`Cc1cc(C2=NCC(c3cc(Cl)cc(Cl)c3)(C(F)(F)F)C2)ccc1C(=O)NC1CS(=O)(=O)C1` (centres unmarked) [A46] showed a pest or weed control at 200 ppm of at least 80%.

Work on `Cc1cc(C2=NCC(c3cc(Cl)cc(Cl)c3)(C(F)(F)F)C2)ccc1C(=O)NC1C[S+]([O-])C1` (centres unmarked) [A48] yielded a pest or weed control at 200 ppm of at least 80%.

Work on `O=C(NC1CS(=O)(=O)C1)c1ccc(C2=NOC(c3cc(Cl)cc(Cl)c3)(C(F)(F)F)C2)c2ccccc12` (centres unmarked) [A15] yielded a pest or weed control at 200 ppm of at least 80%.

With `Cc1cc(C2=NN(C)C(c3cc(Cl)cc(Cl)c3)(C(F)(F)F)C2)ccc1C(=O)NC1C[S+]([O-])C1` (centres unmarked) [A13] the pest or weed control at 200 ppm was at least 80%.

Compound `Cc1cc(C2=NN(C)C(c3cc(Cl)cc(Cl)c3)(C(F)(F)F)C2)ccc1C(=O)NC1CSC1` (centres unmarked) [A14] has a pest or weed control at 200 ppm of at least 80%.

Work on `Cc1cc(C2=NOC(c3cc(Cl)cc(Cl)c3)(C(F)(F)F)C2O)ccc1C(=O)NC1CSC1` (centres unmarked) [A54] yielded a pest or weed control at 200 ppm of at least 80%.

In the case of `Cc1nc2c(C3=NOC(c4cc(Cl)cc(Cl)c4)(C(F)(F)F)C3)ccc(C(=O)NC3CSC3)c2o1` (centres unmarked) [A29], the “effect on mortality, feeding behavior” value is reported as “little or no effect”.

Compound `O=C(NC1C[S+]([O-])C1)c1ccc(C2=NOC(c3cc(Cl)cc(Cl)c3)(C(F)(F)F)C2)c2ccccc12` (centres unmarked) [A16] has a pest or weed control at 200 ppm of at least 80%.

`Cc1cc(C2=NOC(c3cc(Cl)cc(Cl)c3)(C(F)(F)F)C2F)ccc1C(=O)NC1CSC1` (centres unmarked) [A61] gave a pest or weed control at 200 ppm of at least 80%.

For `Cc1cc(C2=NCC(c3cc(Cl)cc(Cl)c3)(C(F)(F)F)C2)ccc1C(=O)NC1(C)CSC1` (centres unmarked) [A47], the pest or weed control at 200 ppm was at least 80%.

In the case of `O=C(NC1CS(=O)(=O)C1)c1ccc(C2=NOC(c3cc(Cl)cc(Cl)c3)(C(F)(F)F)C2Br)c2ccccc12` (centres unmarked) [A42], the pest or weed control at 200 ppm is reported as at least 80%.

`Cc1cc(C2=NOC(c3cc(Cl)cc(Cl)c3)(C(F)(F)F)C2Cl)ccc1C(=O)NC1(C)CSC1` (centres unmarked) [A33] showed a pest or weed control at 200 ppm of at least 80%.

Compound `Cc1cc(C2CC(c3cc(Cl)cc(Cl)c3)(C(F)(F)F)ON2C)ccc1C(=O)NC1CSC1` (centres unmarked) [A21] has a pest or weed control at 200 ppm of at least 80%.

Compound `Cc1cc(C2=NOC(c3cc(Cl)cc(Cl)c3)(C(F)(F)F)C2F)ccc1C(=O)NC1C[S+]([O-])C1` (centres unmarked) [A62] has a pest or weed control at 200 ppm of at least 80%.

In the case of `CC1(NC(=O)c2cccc3c(C4=NOC(c5cc(Cl)cc(Cl)c5)(C(F)(F)F)C4)cccc23)CSC1` (centres unmarked) [A36], the “effect on mortality, feeding behavior” value is reported as “little or no effect”.

Compound `Cc1cc(C2CC(c3cc(Cl)cc(Cl)c3)(C(F)(F)F)ON2C)ccc1C(=O)NC1CS(=O)(=O)C1` (centres unmarked) [A19] has a pest or weed control at 200 ppm of at least 80%.

With `Cc1cc(C2=NOC(c3cc(Cl)cc(Cl)c3)(C(F)(F)F)O2)ccc1C(=O)NC1CSC1` (centres unmarked) [A17] the pest or weed control at 200 ppm was at least 80%.

`CC1(NC(=O)c2ccc(C3=NOC(c4cc(Cl)cc(Cl)c4)(C(F)(F)F)C3Br)c3ccccc23)CSC1` (centres unmarked) [A43] gave a pest or weed control at 200 ppm of at least 80%.

With `O=C(NC1CS(=O)(=O)C1)c1ccc(C2=NOC(c3cc(Cl)cc(Cl)c3)(C(F)(F)F)C2)c2nsnc12` (centres unmarked) [A22] the pest or weed control at 200 ppm was at least 80%.

In the case of `Cc1cc(C2=NN(C)C(c3cc(Cl)cc(Cl)c3)(C(F)(F)F)C2)ccc1C(=O)NC1(C)CSC1` (centres unmarked) [A12], the pest or weed control at 200 ppm is reported as at least 80%.

In the case of `Cc1cc(C2=NOC(c3cc(Cl)cc(Cl)c3)(C(F)(F)F)C2Br)ccc1C(=O)NC1(C)CSC1` (centres unmarked) [A5], the pest or weed control at 200 ppm is reported as at least 80%.

In the case of `Cc1cc(C2=NOC(c3cc(Cl)cc(Cl)c3)(C(F)(F)F)/C2=N/O)ccc1C(=O)NC1CS(=O)(=O)C1` (centres unmarked) [A55], the pest or weed control at 200 ppm is reported as at least 80%.

In the case of `Cc1nc2c(C3=NOC(c4cc(Cl)cc(Cl)c4)(C(F)(F)F)C3)ccc(C(=O)NC3(C)CSC3)c2o1` (centres unmarked) [A27], the “effect on mortality, feeding behavior” value is reported as “little or no effect”.

`Cc1cc(C2=NOC(c3cc(Cl)cc(Cl)c3)(C(F)(F)F)C2Br)ccc1C(=O)NC1CSC1` (centres unmarked) [A6] gave a pest or weed control at 200 ppm of at least 80%.

`CC1(NC(=O)c2ccc(C3=NOC(c4cc(Cl)cc(Cl)c4)(C(F)(F)F)C3)c3ccccc23)CSC1` (centres unmarked) [A1] showed a pest or weed control at 200 ppm of at least 80%.

`Cc1nc2c(C3=NOC(c4cc(Cl)cc(Cl)c4)(C(F)(F)F)C3)ccc(C(=O)NC3CS(=O)(=O)C3)c2o1` (centres unmarked) [A26] was tested, and the “effect on mortality, feeding behavior” value was “little or no effect”.

In the case of `Cc1nc2c(C3=NOC(c4cc(Cl)cc(Cl)c4)(C(F)(F)F)C3)ccc(C(=O)NC3C[S+]([O-])C3)c2o1` (centres unmarked) [A28], the “effect on mortality, feeding behavior” value is reported as “little or no effect”.

`O=C(NC1CSC1)c1ccc(C2=NOC(c3cc(Cl)cc(Cl)c3)(C(F)(F)F)C2)c2ccccc12` (centres unmarked) [A2] showed a pest or weed control at 200 ppm of at least 80%.

`Cc1cc(C2=NOC(c3cc(Cl)cc(Cl)c3)(C(F)(F)F)C2Cl)ccc1C(=O)NC1C[S+]([O-])C1` (centres unmarked) [A34] gave a pest or weed control at 200 ppm of at least 80%.

`O=C(NC1C[S+]([O-])C1)c1ccc(C2=NOC(c3cc(Cl)cc(Cl)c3)(C(F)(F)F)C2Br)c2ccccc12` (centres unmarked) [A44] gave a pest or weed control at 200 ppm of at least 80%.

In the case of `Cc1cc(C2=NCC(c3cc(Cl)cc(Cl)c3)(C(F)(F)F)C2)ccc1C(=O)NC1CSC1` (centres unmarked) [A49], the pest or weed control at 200 ppm is reported as at least 80%.

`Cc1cc(N2CC(c3cc(Cl)cc(Cl)c3)(C(F)(F)F)OC2=O)ccc1C(=O)NC1CSC1` (centres unmarked) [A11] gave a pest or weed control at 200 ppm of at least 80%.
